Experiments:
Test in all cases: whole plant or invertebrate
Assay type in all cases: in vivo
[1] = tested on: Rice Brown Plant Hopper (Nilaparvata lugens); conditions: adults, after 72 hours, read-out: mortality in comparison with untreated controls
[2] = tested on: Silverleaf Whitefly (Bemisia argentifolii); conditions: 72 h, whitefly adults, 3 days after treatment, read-out: mortality in comparison with untreated controls
[3] = tested on: Rice Green Leafhopper (Nephotettix virescens); conditions: adults, after 72 hours, read-out: mortality in comparison with untreated controls
[4] = tested on: Cowpea Aphid (aphis craccivora); conditions: spray, population reduction assessed after 24, 72 and 120 hours, read-out: mortality in comparison with untreated controls
[5] = tested on: Red Spider Mite (Tetranychus kanzawai); conditions: in Vigna unguiculata, 72 hours after treatment, read-out: mortality in comparison with untreated controls
[6] = tested on: Orchid Thrips (dichromothrips corbetti); conditions: 96 h, adult thrips, after 4 days, read-out: mortality in comparison with untreated controls
[7] = tested on: Mediterranean Fruitfly (Ceratitis capitata); conditions: 120 h, egg and larval mortality after 5 days, read-out: mortality in comparison with untreated controls
[8] = tested on: Diamond Back Moth (plutella xylostella); conditions: in Brassica oleracea, foliar, leaf dip, 3rd instar larvae, 72 hours after treatment, read-out: mortality in comparison with untreated controls
[9] = tested on: Boll Weevil (Anthonomus grandis); conditions: 120 h, egg and larval mortality after 5 days, read-out: mortality in comparison with untreated controls
[10] = tested on: Tobacco Budworm (Heliothis virescens); conditions: in Gossypium hirsutum, 96 h, larvae, 4 days after treatment, read-out: mortality in comparison with untreated controls
[11] = tested on: Vetch Aphid (Megoura viciae); conditions: foliar, 120 h, adult aphids, after 5 days, read-out: mortality in comparison with untreated controls
[12] = tested on: Southern Armyworm (Spodoptera eridania); conditions: in Phaseolus lunatus, 96 h, larvae, 4 days after treatment, read-out: mortality in comparison with untreated controls
[13] = tested on: Colorado Potato Beetle (Leptinotarsa decemlineata); conditions: in Solanum melongena, foliar, 96 h, larvae, 4 days after treatment, read-out: mortality in comparison with untreated controls
[14] = tested on: Green Peach Aphid (Myzus persicae); conditions: 120 h, after 5 days, read-out: mortality in comparison with untreated controls

FC(F)(F)c1nn(-c2ncccn2)c(N=S2CCCC2)c1-c1cc(Cl)c2c(c1)OCO2 [I.1-3, 2-[4-(7-Chloro-1,3-benzodioxol-5-yl)-5-(thiolan-1-ylideneamino)-3-(trifluoromethyl)pyrazol-1-yl]pyrimidine]
≥ 75%: mortality at 500 ppm [1] | mortality at 500 ppm [2] | mortality at 300 ppm [3] | mortality at 300 ppm [4] | mortality at 300 ppm [5] | mortality at 300 ppm [6] | mortality at 2500 ppm [7] | mortality at 300 ppm [8] | mortality at 2500 ppm [9] | mortality at 2500 ppm [10] | mortality at 2500 ppm [11] | mortality at 300 ppm [12]

CC(C)S(=Nc1c(-c2cc(Cl)cc(C(F)(F)F)c2)c(C(F)(F)F)nn1-c1ncccn1)C(C)C [I.1-5]
≥ 75%: mortality at 500 ppm [1] | mortality at 500 ppm [2] | mortality at 300 ppm [13] | mortality at 300 ppm [14] | mortality at 300 ppm [3] | mortality at 300 ppm [4] | mortality at 300 ppm [5] | mortality at 300 ppm [6] | mortality at 2500 ppm [7] | mortality at 300 ppm [8] | mortality at 2500 ppm [9] | mortality at 2500 ppm [10] | mortality at 2500 ppm [11] | mortality at 300 ppm [12]

FC(F)(F)c1cc(Cl)cc(-c2c(C(F)(F)F)nn(-c3ncccn3)c2/N=N/Nc2ccccc2)c1 [I.1-10, N-[(E)-[4-[3-chloro-5-(trifluoromethyl)phenyl]-2-pyrimidin-2-yl-5-(trifluoromethyl)pyrazol-3-yl]azo]aniline]
≥ 75%: mortality at 300 ppm [14] | mortality at 300 ppm [4] | mortality at 2500 ppm [7] | mortality at 300 ppm [8] | mortality at 2500 ppm [9] | mortality at 2500 ppm [10] | mortality at 2500 ppm [11] | mortality at 300 ppm [12]

CCS(CC)=Nc1c(-c2cc(Cl)cc(C(F)(F)F)c2)c(C(F)(F)F)nn1-c1ncccn1 [I.1-4]
≥ 75%: mortality at 500 ppm [1] | mortality at 300 ppm [3] | mortality at 300 ppm [4] | mortality at 300 ppm [5] | mortality at 300 ppm [6] | mortality at 2500 ppm [7] | mortality at 300 ppm [8] | mortality at 2500 ppm [9] | mortality at 2500 ppm [10] | mortality at 2500 ppm [11] | mortality at 300 ppm [12]

FC(F)(F)c1cc(Cl)cc(-c2c(C(F)(F)F)nn(-c3ncccn3)c2-n2cccc2)c1 [I.1-7, 2-[4-[3-chloro-5-(trifluoromethyl)phenyl]-5-pyrrol-1-yl-3-(trifluoromethyl)pyrazol-1-yl]pyrimidine]
≥ 75%: mortality at 500 ppm [2] | mortality at 300 ppm [3] | mortality at 300 ppm [4] | mortality at 300 ppm [6] | mortality at 300 ppm [8] | mortality at 2500 ppm [10] | mortality at 300 ppm [12]

CCS(CC)=Nc1c(-c2cc(Cl)c3c(c2)OCO3)c(C(F)(F)F)nn1-c1ncccn1 [I.1-1, [4-(7-Chloro-1,3-benzodioxol-5-yl)-2-pyrimidin-2-yl-5-(trifluoromethyl)pyrazol-3-yl]imino-diethyl-λ^4-sulfane]
≥ 75%: mortality at 500 ppm [1] | mortality at 500 ppm [2] | mortality at 300 ppm [3] | mortality at 300 ppm [4] | mortality at 300 ppm [5] | mortality at 300 ppm [6] | mortality at 2500 ppm [7] | mortality at 300 ppm [8] | mortality at 2500 ppm [9] | mortality at 2500 ppm [10] | mortality at 2500 ppm [11] | mortality at 300 ppm [12]

CCNC(=O)N(C(=O)NCC)c1c(-c2cc(Cl)cc(C(F)(F)F)c2)c(C(F)(F)F)nn1-c1ncccn1 [I.1-9, 1-[4-[3-chloro-5-(trifluoromethyl)phenyl]-2-pyrimidin-2-yl-5-(trifluoromethyl)pyrazol-3-yl]-3-ethyl-1-(ethylcarbamoyl)urea]
≥ 75%: mortality at 500 ppm [1]

CC(C)S(=Nc1c(-c2cc(Cl)c3c(c2)OCO3)c(C(F)(F)F)nn1-c1ncccn1)C(C)C [I.1-2, [4-(7-Chloro-1,3-benzodioxol-5-yl)-2-pyrimidin-2-yl-5-(trifluoromethyl)pyrazol-3-yl]imino-diisopropyl-λ^4-sulfane]
≥ 75%: mortality at 500 ppm [1] | mortality at 500 ppm [2] | mortality at 300 ppm [3] | mortality at 300 ppm [4] | mortality at 300 ppm [6] | mortality at 2500 ppm [7] | mortality at 300 ppm [8] | mortality at 2500 ppm [9] | mortality at 2500 ppm [10] | mortality at 2500 ppm [11] | mortality at 300 ppm [12]
